Each block holds one compound with its values, some of them ahead of it.
Experiments:
[1] = system: MPO activity; experiment: Irritant contact dermatitis (PMA) in vivo FRI; set-up: species or system mouse; conditions: wildtype mice
Description: Female C57Bl/6J (wildtype, Jackson laboratories, Bar Harbor, Me.) and MPO-knockout (KO, Jackson laboratories) mice were treated topically with 0.08 μmol Phorbol 12-myristate 13-acetate (PMA, Sigma, St. Louis, Mo.) on one hind-paw and with vehicle on the other to induce irritant contact dermatitis. This model is well described in the literature and triggers rapid inflammation with influx of neutrophils into the skin. 6 hours after induction, mice were injected intravenously with either 2 nmol of Compound 3 or the non-specific analogue, Compound 18. 1 hour later, 2.5 μg SA-647 was injected intravenously to bind to the biotinylated Compound 3. Mice underwent in vivo imaging using a dedicated in vivo FRI system as described above in Example 11.

[2] = biological target: T1, MPO (Homo sapiens, UniProt P05164); experiment: MPO-PET matrigel implantation imaging in mice; type: in vivo, mouse; conditions: for Background, organ uptake and defluorination: matrigel PET imaging in mice
T1 sequence (P05164 49-745): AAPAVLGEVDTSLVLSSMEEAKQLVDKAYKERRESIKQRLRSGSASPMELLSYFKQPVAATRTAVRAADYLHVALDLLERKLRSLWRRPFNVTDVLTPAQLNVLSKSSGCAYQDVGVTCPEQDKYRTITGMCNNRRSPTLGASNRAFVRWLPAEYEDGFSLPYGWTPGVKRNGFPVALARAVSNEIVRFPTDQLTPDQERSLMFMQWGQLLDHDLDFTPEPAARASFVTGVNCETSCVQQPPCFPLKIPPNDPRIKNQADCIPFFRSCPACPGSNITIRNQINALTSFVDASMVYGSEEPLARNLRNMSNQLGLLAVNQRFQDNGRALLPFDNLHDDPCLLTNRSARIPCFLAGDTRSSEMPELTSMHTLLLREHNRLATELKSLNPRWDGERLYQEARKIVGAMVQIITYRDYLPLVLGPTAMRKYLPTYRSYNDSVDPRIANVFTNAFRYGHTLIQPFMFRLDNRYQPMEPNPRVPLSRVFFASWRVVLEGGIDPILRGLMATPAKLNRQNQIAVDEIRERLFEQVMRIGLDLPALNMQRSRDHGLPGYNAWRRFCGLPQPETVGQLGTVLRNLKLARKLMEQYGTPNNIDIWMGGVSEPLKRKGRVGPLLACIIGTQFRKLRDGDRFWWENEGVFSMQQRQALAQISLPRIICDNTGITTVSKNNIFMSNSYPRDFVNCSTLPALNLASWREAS
Description: 300 μL of 1:1 mixture of matrigel and minimal essential medium (MEM) containing GOX and/or different concentrations of MPO (0, 15 μL, 30 μL) was injected subcutaneously into the ventral aspect of the thighs of the mouse. After 30 min, 300-600 μCi of MPO Compound 9 was injected intravenously. After 2 h, the mice were scanned using PET scanning.
To validate the efficacy of the MPO PET agents for in vivo applications, matrigel implantation experiments were performed by embedding MPO in matrigel along with glucose oxidase (GOX) as H2O2 donor. Matrigel is a gelatinous protein mixture that is liquid at 0° C. but forms a gel at body temperature while remaining diffusible to molecules from the bloodstream when injected into living animals (see e.g., Chen et al, Radiology, 2006, 240(2):473-481). The MPO/matrigel mixtures were injected subcutaneously to the thighs of the mice followed by injection of the MPO PET tracers 30 min later. […] The signal of MPO side was around 1.7 fold higher compared to that of control side.
To verify the specificity of Compound 9 over MPO, different concentrations of MPO (0, 15 μL, 30 μL) were embedded in matrigel for the implantation experiments.

[3] = biological target: T2, MPO (Mus musculus, UniProt P11247); experiment: CFA paw inflammation PET imaging and treatment by MPO inhibitor PF-1355; type: in vivo; set-up: from tissue; host or cells: inflamed forepaw of living mice (CFA)
T2 sequence (P11247 139-718): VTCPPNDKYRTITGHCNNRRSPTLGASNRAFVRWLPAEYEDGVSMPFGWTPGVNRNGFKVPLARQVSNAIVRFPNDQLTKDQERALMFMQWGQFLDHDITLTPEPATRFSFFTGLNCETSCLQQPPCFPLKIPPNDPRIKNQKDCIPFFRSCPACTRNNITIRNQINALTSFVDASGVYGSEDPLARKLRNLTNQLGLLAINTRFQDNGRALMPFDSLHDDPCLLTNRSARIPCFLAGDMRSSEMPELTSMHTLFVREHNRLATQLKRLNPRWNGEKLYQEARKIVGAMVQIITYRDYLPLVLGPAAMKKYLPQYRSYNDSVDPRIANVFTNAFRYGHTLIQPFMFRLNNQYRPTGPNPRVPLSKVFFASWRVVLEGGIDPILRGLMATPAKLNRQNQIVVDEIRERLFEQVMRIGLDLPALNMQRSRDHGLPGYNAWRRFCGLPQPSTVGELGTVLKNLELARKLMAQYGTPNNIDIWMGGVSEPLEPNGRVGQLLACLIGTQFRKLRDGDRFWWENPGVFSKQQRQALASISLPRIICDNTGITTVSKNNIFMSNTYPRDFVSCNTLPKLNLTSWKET
Description: Each pair contained one treated and one untreated, number of pairs, n=3. The 1/1 emulsion of CFA/PBS (40 μL) was injected subcutaneously on the dorsal side of one forepaw under isoflurane anesthesia, and PBS (40 μL) was injected on the other forepaw as control. After 1 h, the treated group was given PF-1355 (50 mg/kg) by gavage, then treated every 6 h for another 3 times, and the control group was treated with vehicle (10 mL/kg) accordingly. After 24 h, 300-600 uCi of Compound 9 was injected intravenously. After another 2 h, each pair of the mice was scanned side by side.
After validating the efficacy of the MPO Compound 9 in matrigel experiments, the specificity of the agent in inflammation was investigated. Complete Freund's Adjuvant (CFA) or its emulsion can cause inflammation when injected subcutaneously to the animal. The CFA emulsion was injected to one dorsal side of the forepaw of the mouse and the other side was injected with PBS. After 24 h, Compound 9 was injected intravenously and scanned 2 h after injection. […] To further verify the specificity of the MPO Compound 9, the mice were treated with MPO inhibitor PF-1355 1 h after CFA emulsion injection and continuously every 6 h afterwards for 4 times before injecting the Compound 9. The control group was treated with vehicle after CFA injection. Then each pair of the mice from treated and untreated groups were scanned.

Structure (SMILES): O=C(CCCC[C@@H]1SC[C@@H]2NC(=O)N[C@@H]21)N[C@@H](Cc1c[nH]c2ccccc12)C(=O)NCCc1c[nH]c2ccccc12 [Compound 18, N—((S)-1-((2-(1H-indol-3-yl)ethyl)amino)-3-(1H-indol-3-yl)-1-oxopropan-2-yl)-5-((3aS,4S,6aR)-2-oxohexahydro-1H-thieno[3,4-d]imidazol-4-yl)pentanamide]
Fluorescence intensity, PMA-treated hind-paw [1]: 50.1±5.8 RFU
Fluorescence intensity, vehicle-treated hind-paw [1]: 28.4±5.5 RFU

PET signal of MPO side ([2]; matrigel MPO thigh vs control thigh): low signal
Background, organ uptake and defluorination [2]: high heart uptake
Structure (SMILES): O=C(NC(Cc1c[nH]c2ccc(O)cc12)C(=O)NCCc1c[nH]c2ccc(O)cc12)c1ccc([18F])cc1 (centres unmarked) [Compound 7]

Structure (SMILES): O=C(Cc1c[nH]c2ccc(O)cc12)NC(Cc1c[nH]c2ccc(O)cc12)C(=O)NCCCCCC[18F] (centres unmarked) [Compound 5]
Background, organ uptake and defluorination [2]: high heart and liver uptake and high background were observed from defluorination

Ratio of PF-1355 treated to untreated ([3]; mean of three pairs): .410
% Inhibition ([3]; mean of three pairs, PF-1355 50 mg/kg by gavage, Compound 9 PET): 59%
Compound 9 uptake in inflamed paw, PF-1355 treated ([3]; mean of three pairs, PF-1355 50 mg/kg by gavage): .0622 SUV
Compound 9 uptake in inflamed paw, PF-1355 treated ([3]; mouse pair 1, PF-1355 50 mg/kg by gavage): .0555 SUV
Compound 9 uptake in inflamed paw, PF-1355 treated ([3]; mouse pair 2, PF-1355 50 mg/kg by gavage): .0736 SUV
Compound 9 uptake in inflamed paw, PF-1355 treated ([3]; mouse pair 3, PF-1355 50 mg/kg by gavage): .0575 SUV
Structure (SMILES): COc1ccc(OC)c(-c2cc(=O)[nH]c(=S)n2CC(N)=O)c1 [PF-1355]
